Data from patent US4175081A, “5-Substituted thiadiazole ureas” (priority 1977, dated 1979).

Key:
Crabgrass (CG) [1] = assay: Pre-emergence herbicide test; assay type: in vivo, Digitaria sanquinalis; settings: Digitaria sanguinalis, pre-emergence, 336 h, two weeks after treatment
Method in brief: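 Crabgrass (Digitaria sanquinalis) was surface seeded in 3' plastic pots of potting soil, covered with screened soil, and watered by sub-irrigation in greenhouse trays. Pots were seeded one day before spraying in a hood with a moving belt and fixed nozzle. Plants stayed in the greenhouse on sub-irrigation, and pre-emergence control was rated visually two weeks after treatment.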

[2] = test system: Yellow foxtail grass (YF); assay: Pre-emergence herbicide test; assay type: in vivo, Setaria glauca; settings: Setaria, 336 h, 2 lb/acre, two weeks after treatment
Method in brief: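 Visual rating of injury/control made two weeks after a pre-emergence spray of 8 or 4 lbs active per acre (38 gal/acre) onto pots seeded the previous day. Greenhouse watering by sub-irrigation only.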

Johnson grass (JG) [3] = assay: Pre-emergence herbicide test; assay type: in vivo, Sorgum helepense; settings: Sorghum halepense, 336 h, two weeks after treatment
Method in brief: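 Visual injury or control rating two weeks post-treatment, after pre-emergence spray of 8 or 4 lbs active per acre (38 gal/acre) onto pots sown the previous day. Greenhouse watering by sub-irrigation only.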

Barnyard grass (BG) [4] = assay: Pre-emergence herbicide test; assay type: in vivo; settings: Echinochloa crus-galli, 336 h, two weeks after treatment
Method in brief: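 Greenhouse pre-emergence spray test: pots seeded one day before treatment received compound at rates of 8 or 4 lb/acre (38 gal/acre). Visual injury/control scores for Echinochloa crus-galli taken at two weeks, with watering by sub-irrigation only.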

Amaranth pigweed (PW) [5] = assay: Pre-emergence herbicide test; assay type: in vivo, Amaranthus retroflexus; settings: 336 h, 2 lb/acre, two weeks after treatment
Method in brief: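 Visual injury or control ratings were made at two weeks on pre-emergence pots, sub-irrigated in the greenhouse. Seeds were sown a day before a hood spray delivering 8 lbs/acre (or 4 lbs/acre) of compound in 38 gallons per acre.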

Turnip (TP) [6] = assay: Pre-emergence herbicide test; assay type: in vivo, Brassica sp.; settings: Brassica rapa, pre-emergence, 336 h, two weeks after treatment
Method in brief: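 In this pre-emergence greenhouse test, turnip was seeded on the surface of potting soil in 3' plastic pots, lightly covered with screened soil, and watered from below. One day later the pots were sprayed in a belt-fed spray hood. Watering continued only by sub-irrigation, and percent control was visually scored two weeks after treatment.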

Cotton (CT) [7] = assay: Pre-emergence herbicide test; assay type: in vivo, Gossypium hirsutum var. DPL smooth leaf; settings: Gossypium hirsutum, 336 h, two weeks after treatment
Method in brief: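 Visual injury/control ratings were taken at two weeks post-spray. Pots seeded a day earlier received compound pre-emergence at 8 lbs/acre, or 4 lbs/acre, in a 38 gallon/acre spray volume, and were then held in the greenhouse, watered only from below.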

Corn (CN) [8] = assay: Pre-emergence herbicide test; assay type: in vivo; settings: Zea mays, 336 h, two weeks after treatment
Method in brief: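 Visual injury/control ratings were made 2 weeks post-spray on corn pots seeded (4 seeds, seed-diameter depth) the day before treatment. Application was a belt-hood spray of 38 gal/acre delivering 8 lbs active per acre, with a 4 lbs/acre rate also formulated. Watering was by sub-irrigation throughout.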

Bean (BN) [9] = assay: Pre-emergence herbicide test; assay type: in vivo, Phaseolus vulgaris var. Black Valentine; settings: Phaseolus vulgaris, 336 h, two weeks after treatment
Method in brief: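 Visual injury/control ratings were taken two weeks post-spray on sub-irrigated Phaseolus vulgaris var. Black Valentine. Pots were sown a day before treatment. Pre-emergence spray delivered 8 lbs actual compound per acre (or 4 lbs/acre) at 38 gallons per acre.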

Crabgrass (CG) [10] = assay: Post-emergence herbicide test; assay type: in vivo, Digitaria sanquinalis; settings: Digitaria sanguinalis, post-emergence, 336 h, two weeks after treatment
Method in brief: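 Crabgrass (Digitaria sanquinalis) was surface seeded individually in 3' plastic pots of potting soil, covered with screened soil, and watered by sub-irrigation in greenhouse trays. Planting was staggered so seedlings reached the target stage together. Post-emergence sprays were applied in a hood with a removable belt and fixed nozzle, and control was visually rated two weeks after treatment.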

[11] = test system: Yellow foxtail grass (YF); assay: Post-emergence herbicide test; assay type: in vivo, Setaria glauca; settings: Setaria, 336 h, 2 lb/acre, two weeks after treatment
Method in brief: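 Visual rating of injury/control made 2 weeks post-spray. Seedlings at a uniform growth stage in soil-filled pots received a hood spray of 8 lbs/acre active compound, 38 gallons/acre volume, with a 4 lbs/acre rate also formulated. Watering was by sub-irrigation only.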

Johnson grass (JG) [12] = assay: Post-emergence herbicide test; assay type: in vivo, Sorgum helepense; settings: Sorghum halepense, 336 h, two weeks after treatment
Method in brief: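 Visual injury or control scores taken 2 weeks after a post-emergence spray of pot-grown plants. Application was 8 lbs/acre (or 4 lbs/acre) in 38 gal/acre. Plants were held in the greenhouse with sub-irrigation only.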

Barnyard grass (BG) [13] = assay: Post-emergence herbicide test; assay type: in vivo; settings: Echinochloa crus-galli, 336 h, 2 lb/acre, two weeks after treatment
Method in brief: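 Greenhouse pot-grown barnyard grass seedlings sprayed post-emergence at 8 lbs active compound per acre (some at 4 lbs/acre) in 38 gallons per acre, then sub-irrigated. Injury or control rated visually two weeks after treatment.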

Amaranth pigweed (PW) [14] = assay: Post-emergence herbicide test; assay type: in vivo, Amaranthus retroflexus; settings: 336 h, 2 lb/acre, two weeks after treatment
Method in brief: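 Visual injury or control ratings were made two weeks after spraying, with greenhouse watering by sub-irrigation only. Treatment was post-emergence, when pigweed seedlings had 1 or 2 true leaves, at 8 lbs active compound per acre (4 lbs/acre formulations also made) in a 38 gallons-per-acre spray volume.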

Turnip (TP) [15] = assay: Post-emergence herbicide test; assay type: in vivo, Brassica sp.; settings: Brassica rapa, post-emergence, 336 h, two weeks after treatment
Method in brief: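 A greenhouse post-emergence herbicide test on turnip. Seeds were sown on the surface of potting soil in 3' plastic pots, lightly covered with screened soil and watered from below. Planting was timed so seedlings had 1 or 2 true leaves above the cotyledons at spraying, done in a hood with a fixed nozzle. Control or injury was scored by eye after two weeks.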

Cotton (CT) [16] = assay: Post-emergence herbicide test; assay type: in vivo, Gossypium hirsutum var. DPL smooth leaf; settings: Gossypium hirsutum, post-emergence, 336 h, two weeks after treatment
Method in brief: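 This greenhouse post-emergence test measured how well spray treatments controlled cotton. Seedlings of Gossypium hirsutum var. DPL smooth leaf, with expanded cotyledons and a first true leaf 1' in length, were sprayed with 50 ml formulations in a belt-fed spray hood. They were then returned to the greenhouse and watered only by sub-irrigation. Injury was scored visually as % control after two weeks.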

Corn (CN) [17] = assay: Post-emergence herbicide test; assay type: in vivo; settings: Zea mays, 336 h, two weeks after treatment
Method in brief: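 Greenhouse seedlings grown in potting soil and sprayed post-emergence at 8 lbs compound/acre (formulations also made for 4 lbs/acre) in 38 gallons/acre spray volume. Watering by sub-irrigation only. Injury or control rated visually two weeks after treatment.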

Bean (BN) [18] = assay: Post-emergence herbicide test; assay type: in vivo, Phaseolus vulgaris var. Black Valentine; settings: Phaseolus vulgaris, post-emergence, 336 h, two weeks after treatment
Method in brief: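 Bean seedlings (Phaseolus vulgaris var. Black Valentine) were grown in potting soil in 3' pots until the primary leaves expanded. They were then sprayed under a hood with a removable belt and fixed nozzle, using 50 ml formulations. Afterward they were returned to the greenhouse and watered only by sub-irrigation. Percent control was judged visually two weeks after treatment.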

[19] = Acute oral toxicity in rats; settings: rat, in vivo

CNC(=O)Nc1nnc(C(C)(C)C)s1 [Example 86]
80%: pest or weed control at 8966.8 g/ha (Barnyard grass (BG) [4]; 8 lb/acre) | pest or weed control at 8966.8 g/ha (Crabgrass (CG) [10]; 8 lb/acre) | pest or weed control (Johnson grass (JG) [12]; 2 lb/acre)
100%: pest or weed control at 8966.8 g/ha (Crabgrass (CG) [1]; 8 lb/acre) | pest or weed control at 2241.7 g/ha (Amaranth pigweed (PW) [5]) | pest or weed control at 2241.7 g/ha (Turnip (TP) [6]; 2 lb/acre) | pest or weed control at 8966.8 g/ha (Turnip (TP) [6]; 8 lb/acre) | pest or weed control at 8966.8 g/ha (Bean (BN) [9]; 8 lb/acre) | pest or weed control at 8966.8 g/ha (Johnson grass (JG) [12]; 8 lb/acre) | pest or weed control at 2241.7 g/ha (Amaranth pigweed (PW) [14]) | pest or weed control at 2241.7 g/ha (Turnip (TP) [15]; 2 lb/acre) | pest or weed control at 8966.8 g/ha (Turnip (TP) [15]; 8 lb/acre) | pest or weed control at 2241.7 g/ha (Cotton (CT) [16]; 2 lb/acre) | pest or weed control at 8966.8 g/ha (Cotton (CT) [16]; 8 lb/acre) | pest or weed control at 8966.8 g/ha (Corn (CN) [17]; 8 lb/acre) | pest or weed control at 2241.7 g/ha (Bean (BN) [18]; 2 lb/acre) | pest or weed control at 8966.8 g/ha (Bean (BN) [18]; 8 lb/acre)
40%: pest or weed control (Corn (CN) [17]; 2 lb/acre)
2700 mg/kg: LD50 [19]
50%: pest or weed control at 8966.8 g/ha (Johnson grass (JG) [3]; 8 lb/acre) | pest or weed control at 8966.8 g/ha (Cotton (CT) [7]; 8 lb/acre) | pest or weed control (Crabgrass (CG) [10]; 2 lb/acre) | pest or weed control at 2241.7 g/ha (Barnyard grass (BG) [13])
60%: pest or weed control at 2241.7 g/ha (Johnson grass (JG) [3]; 2 lb/acre) | pest or weed control at 2241.7 g/ha (Barnyard grass (BG) [4]; 2 lb/acre) | pest or weed control at 8966.8 g/ha (Corn (CN) [8]; 8 lb/acre)
30%: pest or weed control at 2241.7 g/ha (Bean (BN) [9]; 2 lb/acre)
90%: pest or weed control (Crabgrass (CG) [1]; 2 lb/acre) | pest or weed control at 2241.7 g/ha [2]
70%: pest or weed control [11]
10%: pest or weed control at 2241.7 g/ha (Cotton (CT) [7]; 2 lb/acre) | pest or weed control at 2241.7 g/ha (Corn (CN) [8]; 2 lb/acre)
